Data set [1] concerns MMP1, MMP2 and MMP9. Put plainly: Effect on related MMP catalytic activity. Type of data set: biochemical. How it is done:
(§1) Bicycle drug conjugates (BDCs) with a variety of linkers and cytotoxic payloads were prepared which retained binding to MT1.

Data set [2] deals with cell migration or invasion. The data set is described as follows: Cell migration or invasion. Type of data set: cell-based. How it is done: as §1
The target in data set [3] is MT1-MMP (Homo sapiens, UniProt P50281). The data set is described as follows: Effect on catalytic (proteolytic) activity of MT1-MMP. The format is biochemical. The settings on record: in vitro. How it is done:
as §1
(§2) BT1718 is a BDC that binds to MT1-MMP and upon cleavage of its disulphide linker, releases the cytotoxic tubulin inhibitor, DM1 (also referred to as DM1-SH).

In data set [4] the test system is catalytic domain of MT1-MMP. The data set is described as follows: Binding to catalytic domain of MT1-MMP. How it is done:
as §1, §2

Data set [5] concerns MMP15, MMP16, MMP24, MMP1, Pro-MMP1, MMP2. Put plainly: Binding to related MMP family members. How it is done: as §1, §2
The nature of data set [6]: Intrinsic clearance in cryopreserved hepatocytes. The format is in vitro ADME. How it is done: Accumulation of the majority of the radioactivity was found in the kidney and bladder irrespective of the labelled peptide dose; this is indicative of either non-saturable excretion or proteolysis followed by excretion through the kidneys. Furthermore, the intrinsic clearance of BT1718 and its Bicycle component, N241 was low when measured in cryopreserved hepatocytes. […] Unconjugated DM1, when radiolabelled, (as [[^3H]-DM1 (91 μCi/kg, 200 μg/kg, IV), was reported to distribute rapidly and extensively to the lungs, liver, kidney, spleen, heart, gastrointestinal tract, and adrenal glands in the rat. The major route of excretion of DM1 was through the bile/faeces, with a minimal amount excreted in the urine, a completely different distribution to BT1718 and its metabolites with little and short lived accumulation seen in other organs such as heart, liver, GI and lungs which would imply that these organs maybe spared systemic toxicity.

For data set [7] the following is noted: in vitro immunogenicity tests, n=50.
Source text: These include in vitro tissue microarray in human, rat and monkey tissues and in vitro and in vivo assessment of immunogenicity. In vivo assessments include single dose toxicity in mice and rats, multiple dose range finding studies in mice, rats, dogs and monkeys (non-GLP) and GLP-compliant multiple dose studies in rats and monkeys consisting of 28-day on study phase with a 28-day recovery period.
The test system of data set [8] is NSCLC. The settings on record: second-line treatment, PD-1 checkpoint blockade; cited from earlier work.
In data set [9] the test system is HER2 positive breast cancer. The settings on record: third-line, HER2 positive population; cited from earlier work.
Data set [10] deals with MT1 MMP-expressing NSCLC PDX models. Put plainly: MT1-MMP-expressing NSCLC PDX models, docetaxel-sensitive and -resistant. The note with it: 60 mg/m^2 once weekly. Type of data set: in vivo. The source says: Furthermore, BT1718 produced an anti-tumor effect against MT1 MMP-expressing NSCLC PDX models irrespective of their sensitivity to the SOC chemotherapeutic docetaxel. […] The PDX models confirm that MT1-MMP expression is necessary for BT1718 anti-tumor activity.

For data set [11], the system named is NMB selected tumors. The note with it: cited from earlier work.
For data set [12] the following is noted: human; previously reported; cited from earlier work.
The conditions of data set [13]: [^3H]-DM1 200 μg/kg IV, rat; cited from earlier work.
The conditions of data set [14]: monkey; previously reported; cited from earlier work.
The conditions of data set [15]: rat; previously reported; cited from earlier work.

Read-outs that look alike come from different tables or passages of the source. Numbered stars: 1 amine (or outer) side, 2 acyl side, 3 side chain; on linkers, the order of the positions; unused ones are H or OH. Bridge positions count the residues as written; N and C are the ends. Square brackets hold non-standard residues; d marks the D form. Peptide text beside a SMILES is read from it. 1Nal = N[C@@H](Cc1cccc2ccccc12)C(=O)O; TBMB = c1c(C[*:1])cc(C[*:3])cc1C[*:2]; Tle = CC(C)(C)[C@H](N)C(=O)O; βAla = NCCC(=O)O; Sar = CNCC(=O)O

Regarding `C[C@H](NC(=O)CN(C)C(=O)CN(C)C(=O)CN(C)C(=O)CN(C)C(=O)CN(C)C(=O)CN(C)C(=O)CN(C)C(=O)CN(C)C(=O)CN(C)C(=O)CN(C)C(=O)CCN)C(=O)N[C@H]1CSCc2cc3cc(c2)CSC[C@H](NC(=O)[C@@H](C)NC(=O)[C@H](Cc2cccc4ccccc24)NC(=O)[C@H](CCC(=O)O)NC(=O)[C@H](CC(N)=O)NC(=O)[C@@H](C)NC1=O)C(=O)N[C@@H](CCC(=O)O)C(=O)N[C@@H](CC(=O)O)C(=O)N[C@@H](Cc1ccccc1)C(=O)N[C@@H](Cc1ccc(O)cc1)C(=O)N[C@@H](CC(=O)O)C(=O)N[C@@H](C(C)(C)C)C(=O)N[C@H](C(N)=O)CSC3` [N241] (H-[βAla][Sar][Sar][Sar][Sar][Sar][Sar][Sar][Sar][Sar][Sar]AC[dA]NE[1Nal][dA]CEDFYD[Tle]C-NH2; linker 13-19-26 via TBMB; N-terminus and C-terminus assumed), the “impact on related MMP catalytic activity” value in [1] is “no direct impact”. Also, the “impact on cell migration or invasion” value in [2] is “no direct impact”. The “impact on the catalytic activity of the protease” value in data set [3] is recorded as “no direct impact”. For the same compound, in data set [4], the “binding to the catalytic domain” value is listed as “no binding” and the “selectivity over catalytic domain of MT1-MMP” value was “at least 50 fold”. In data set [5], the “selectivity over other related-MMP hemopexin domains” value is listed as “over 200 fold”. In data set [5] (MMP15, MMP16, MMP24, MMP1, Pro-MMP1, MMP2), the “binding toward closely related MMP family members” value is on record as “no binding”. For the same compound, the intrinsic clearance result in [6] is “low”. The “positive responses in donor cohort” value in [7] amounted to 2%.
Take “nivolumab: PD-1 checkpoint blockade agent”: the ORR entry in [8] is recorded as “around 20%”.
Consider “atezolizumab: PD-1 checkpoint blockade agent”, for which the ORR entry in data set [8] was “around 20%”.
With T-DM1, in data set [9], the ORR is on record as 31%.
“pembrolizumab: PD-1 checkpoint blockade agent”: the ORR result in [8] is listed as “around 20%”.
Consider `CC(=O)O[C@@]12CO[C@@H]1C[C@H](O)[C@@]1(C)C(=O)[C@H](O)C3=C(C)[C@@H](OC(=O)[C@H](O)[C@@H](NC(=O)OC(C)(C)C)c4ccccc4)C[C@@](O)([C@@H](OC(=O)c4ccccc4)[C@H]21)C3(C)C` [docetaxel], for which, in data set [10], the anti-tumor effect result was “regression only in the docetaxel-sensitive model”.
In the case of “CDX-011: Antibody-Drug Conjugate (ADC) against glycoprotein NMB”, the ORR in data set [11] was 30%.
As for `COc1cc2cc(c1Cl)N(C)C(=O)C[C@H](OC(=O)[C@H](C)N(C)C(=O)CCS)[C@]1(C)O[C@H]1[C@H](C)[C@@H]1C[C@@](O)(NC(=O)O1)[C@H](OC)/C=C/C=C(\C)C2` [DM1], the unbound fraction in [12] is given as 7%; in data set [14], 7%; in data set [15], 3%. In addition, the “major route of excretion” value in data set [13] is “bile/faeces”.
